Experimental data reported in PMC11011441, “Bioactive Compounds and Potential Health Benefits through Cosmetic Applications of Cherry Stem Extract” (International Journal of Molecular Sciences, 2024).

How the values were obtained:
Type in all cases: biochemical
elastase = assay: Elastase inhibition (MeOSuc-Ala-Ala-Pro-Val-pNa hydrolysis); conditions: at 51.26 mg/L
Experimental: (§1) The potential of cherry stem extract to inhibit hyaluronidase (HYALase), collagenase, elastase, tyrosinase, and xanthine oxidase enzymes was evaluated. The methods were carried out following previous studies.
The assessment of elastase enzyme inhibition was based on the release of p-nitroaniline resulting from the hydrolysis of the substrate MeOSuc-Ala-Ala-Pro-Val-pNa by elastase. The quantity of p-nitroaniline was gauged through absorbance readings at 405 nm. Elastatinal (ELA) was employed as the control for elastase inhibition. The control result was stated as % inhibition.
(§2) Results for cherry stem extract were presented as IC50 values at various extract concentrations, except for the enzyme tyrosinase, which was presented as IC55 value at various extract concentrations. All evaluations were performed in triplicate.

[1] = Hypochlorous acid scavenging (oxidation of DHR to rhodamine); conditions: radical scavenging
Experimental: (§3) The ability of cherry stem extract to inhibit superoxide radical (O2^·−), hypochlorous acid (HOCl), and nitric oxide (NO^·) was evaluated. […] The scavenging properties of cherry stem extract and positive controls against the O2^·− radical were assessed colorimetrically by reduction of NBT to diformazan purple. The ability of the cherry stem extract to inhibit HOCl by inducing the oxidation of DHR to rhodamine was determined. The scavenging activity of cherry stem extract against NO^· was determined by oxidation of DAF-2. To assess the inhibition of O2^·−, NO^·, and HOCl radicals, epicatechin (EPI) and gallic acid (GA) were employed as reference controls. All results were expressed as IC50 value using different concentrations of cherry stem extract and all measurements were performed in triplicate.

[2] = Superoxide radical scavenging (reduction of NBT to diformazan)
Experimental: as §3

[3] = Nitric oxide scavenging (oxidation of DAF-2); conditions: radical scavenging
Experimental: as §3

hyaluronidase (HYALase) = assay: HYALase inhibition assay (turbidity at 600 nm)
Experimental: The potential of cherry stem extract to inhibit hyaluronidase ([…]), collagenase, elastase, tyrosinase, and xanthine oxidase enzymes was evaluated. The methods were carried out following previous studies. The […] inhibition assay involves quantifying the reduction in transmitted light intensity caused by particles generated from the breakdown of hyaluronic acid (HYAL) by the […] enzyme. Absorbance readings were taken at 600 nm. EPI and GA were employed as controls to evaluate […] inhibition. The outcomes from the EPI and GA controls were reported as IC20 values. Results for cherry stem extract were presented as IC50 values at various extract concentrations, except for the enzyme tyrosinase, which was presented as IC55 value at various extract concentrations. All evaluations were performed in triplicate.

tyrosinase = assay: Tyrosinase inhibition (Colorimetric Tyrosinase Inhibitor Detection Kit); conditions: at 21.3 mg/L
Experimental: The potential of cherry stem extract to inhibit hyaluronidase ([…]), collagenase, elastase, tyrosinase, and xanthine oxidase enzymes was evaluated. The methods were carried out following previous studies. The evaluation of tyrosinase inhibition was conducted using a “Colorimetric Tyrosinase Inhibitor Detection Kit” sourced from Sigma-Aldrich, USA. Inhibition control was established with kojic acid (KA). The control outcome was represented as % inhibition. Results for cherry stem extract were presented as IC50 values at various extract concentrations, except for the enzyme tyrosinase, which was presented as IC55 value at various extract concentrations. All evaluations were performed in triplicate.

collagenase = assay: Collagenase inhibition (FALGPA degradation)
Experimental: as §1
The evaluation of collagenase enzyme activity is based on the colorimetric analysis of the degradation of the FALGPA substrate by the enzyme. The absorbance measurements were taken at 335 nm. Phenanthroline (PHE) was used as the control to assess collagenase inhibition, and the IC50 value was quantified as the control.
as §2

SMILES | HYALase inhibitory concentration at 20% (IC20) (hyaluronidase (HYALase)) | HOCl inhibitory concentration at 50% [1] [mg/L] | O2^·− inhibitory concentration at 50% [2] [mg/L] | NO^· inhibitory concentration at 50% [3] [mg/L] | also measured
CC(C)C[C@H](NC(=O)N[C@H](C(=O)N[C@@H](CCC(N)=O)C(=O)N[C@@H](C)C=O)[C@@H]1CCNC(=N)N1)C(=O)O [ELA, elastatinal] |  |  |  |  | Elastase % inhibition (elastase): 53 ± 5 ^4%
O=c1cc(CO)occ1O [KA, Kojic acid] |  |  |  |  | Tyrosinase % inhibition (tyrosinase): 49 ± 6 ^3%
c1cnc2c(c1)ccc1cccnc12 [PHE, 1, 10-phenanthroline] |  |  |  |  | Collagenase inhibitory concentration at 50% (collagenase): 83 ± 2 mg/L

More lines, main results first:

HYALase inhibitory concentration at 20% (IC20) (hyaluronidase (HYALase)) | SMILES | HOCl inhibitory concentration at 50% [1] [mg/L] | O2^·− inhibitory concentration at 50% [2] [mg/L] | NO^· inhibitory concentration at 50% [3] [mg/L] | also measured
167 ± 6 ^5 mg/L | Oc1cc(O)c2c(c1)O[C@H](c1ccc(O)c(O)c1)[C@H](O)C2 [EPI, epicatechin] | 0.18 ± 0.01 | 70 ± 5 | 0.87 ± 0.02 | 
102 ± 4 ^5 mg/L | O=C(O)c1cc(O)c(O)c(O)c1 [GA, gallic acid] | 3.8 ± 0.3 | 50 ± 3 | 1.4 ± 0.3 | 
